# Measurements reported in article PMC7279355, “Preparation of Biphenyl-Conjugated Bromotyrosine for Inhibition of PD-1/PD-L1 Immune Checkpoint Interactions” (International Journal of Molecular Sciences, 2020).
# Numbered stars: 1 amine (or outer) side, 2 acyl side, 3 side chain; on linkers, the order of the positions; unused ones are H or OH. Square brackets hold non-standard residues; d marks the D form. Peptide text beside a SMILES is read from it. X1 = Cc1c(COc2ccc(C[C@H](N[*:1])C(=O)[*:2])cc2Br)cccc1-c1ccccc1
# Target: T1, PD-1/PD-L1 interaction (Homo sapiens, UniProt Q9NZQ7)
# T1 construct: purchased PerkinElmer AL356 HV/C/F
# Experiment: AlphaLISA amplified luminescence proximity homogeneous assay, inhibition of PD-1/PD-L1 binding
# Conditions: AlphaLISA, His-tagged PD-L1 and biotin-conjugated PD-1, 25 °C, 90 min
# Source text: To evaluate the binding affinities of the compounds for PD-L1, we used the amplified luminescence proximity homogeneous assay (Alpha) by using the AlphaLISA® assay kit [38]. This assay is based on photoinduced energy transfer between donor and acceptor beads conjugated to PD-1 and PD-L1, respectively (Figure S6).
# In this assay, direct binding of an inhibitor to PD-L1 is detected by photoinduced energy transfer (Figure S6). Biotin-conjugated PD-1 is attached to streptavidin-coated donor beads and histidine (His)-tagged PD-L1 is attached to anti-His-conjugated acceptor beads. Photoexcitation of the donor beads at 680 nm yields singlet oxygen.
# Positive and negative technical controls were included in parallel. Positive controls contained buffer (2 μL) in place of solution 1–10, and negative controls contained only the beads (2 μL each) and buffer (6 μL).
# The reaction samples (10 μM) were placed in a 384-well microplate and photoirradiated at 680 nm from the top. […] IC50 values were estimated from a sigmoidal curve of fluorescence intensity vs. inhibitor concentration using a relative weighting method (1/Y^2 weighting) with GraphPad Prism 8 (GraphPad Software Inc., San Diego, CA, USA).
# T1 sequence (Q9NZQ7 19-238 limits assumed): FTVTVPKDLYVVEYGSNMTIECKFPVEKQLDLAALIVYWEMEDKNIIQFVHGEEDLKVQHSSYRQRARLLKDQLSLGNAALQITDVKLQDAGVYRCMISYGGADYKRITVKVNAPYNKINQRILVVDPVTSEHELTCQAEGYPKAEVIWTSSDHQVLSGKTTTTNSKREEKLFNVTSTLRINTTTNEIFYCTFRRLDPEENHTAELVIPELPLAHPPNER
row,Molecule,IC50 [µM]
1,CSCC[C@H](NC(=O)[C@H](CCCCN)NC(=O)[C@H](CC(N)=O)NC(=O)[C@H](Cc1ccc(OCc2cccc(-c3ccccc3)c2C)c(Br)c1)NC(=O)[C@H](CCCNC(=N)N)NC(=O)[C@H](CCC(=O)O)NC(=O)[C@@H](N)CS)C(=O)O [CERXNKM] (H-CER[X1]NKM-OH),308
2,"Cc1c(CO)cccc1-c1ccccc1 [Compound1, 3-hydroxymethyl-2-methylbiphenyl]",309
3,"CC(C)(C)OC(=O)[C@H](Cc1ccc(O)c(Br)c1)NC(=O)OCC1c2ccccc2-c2ccccc21 [Compound4, (S)-tert-Butyl 2-({[(9H-fluoren-9-yl)methoxy]carbonyl}amino)-3-(3-bromo-4-hydroxyphenyl)propanoate]",1060
4,"Cc1c(COc2ccc(C[C@H](NC(=O)OCC3c4ccccc4-c4ccccc43)C(=O)OC(C)(C)C)cc2Br)cccc1-c1ccccc1 [Compound5, (S)-tert-Butyl 2-({[(9H-fluoren-9-yl)methoxy]carbonyl}amino)-3-{3-bromo-4-[(2-methyl-1,1’-biphenyl-3-yl)methoxy]phenyl}propanoate]",897
5,"Cc1c(COc2ccc(C[C@H](NC(=O)OCC3c4ccccc4-c4ccccc43)C(=O)O)cc2Br)cccc1-c1ccccc1 [Compound6, (S)-2-({[(9H-fluoren-9-yl)methoxy]carbonyl}amino)-3-{3-bromo-4-[(2-methyl-1,1’-biphenyl-3-yl)methoxy]phenyl}propanoic acid]",1420
6,CC[C@H](C)[C@H](NC(=O)[C@H](CC(N)=O)NC(=O)[C@H](CC(N)=O)NC(=O)[C@H](Cc1ccc(OCc2cccc(-c3ccccc3)c2C)c(Br)c1)NC(=O)[C@H](CCCNC(=N)N)NC(=O)[C@H](Cc1c[nH]c2ccccc12)NC(=O)[C@@H](N)Cc1ccccc1)C(=O)O [FWRXNNI] (H-FWR[X1]NNI-OH),312
7,Cc1c(COc2ccc(C[C@H](NC(=O)CN)C(=O)O)cc2Br)cccc1-c1ccccc1 [GX],448

# Next, values leading:
row,IC50 [µM],Molecule
1,405,Cc1c(COc2ccc(C[C@H](NC(=O)[C@@H](N)CCCNC(=N)N)C(=O)N[C@@H](CC(N)=O)C(=O)O)cc2Br)cccc1-c1ccccc1 [RXN]
2,405,Cc1c(COc2ccc(C[C@H](NC(=O)[C@@H](N)Cc3c[nH]c4ccccc34)C(=O)NCC(=O)O)cc2Br)cccc1-c1ccccc1 [WXG]
3,1.5,"Cc1c(COc2ccc(C[C@H](N)C(=O)O)cc2Br)cccc1-c1ccccc1 [X, (S)-2-amino-3-[3-bromo-4-{(2-methyl-1,1′-biphenyl-3-yl)methoxy}phenyl]propanoic acid]"
4,22.3,Cc1c(COc2ccc(C[C@H](N)C(=O)N[C@@H](C)C(=O)O)cc2Br)cccc1-c1ccccc1 [XA]
5,6510,Cc1c(COc2ccc(C[C@H](N)C(=O)NCC(=O)NCC(=O)O)cc2Br)cccc1-c1ccccc1 [XGG]
6,2.1,Cc1c(COc2ccc(C[C@H](N)C(=O)NCC(=O)O)cc2Br)cccc1-c1ccccc1 [XG]
7,2650,Cc1c(COc2ccc(C[C@H](N)C(=O)N[C@@H](CO)C(=O)O)cc2Br)cccc1-c1ccccc1 [XS]
8,845,Cc1c(COc2ccc(C[C@H](N)C(=O)N[C@@H](Cc3c[nH]c4ccccc34)C(=O)O)cc2Br)cccc1-c1ccccc1 [XW]

# Same assay, conditions: AlphaLISA, positive control
row,IC50 [µM],Molecule
1,0.0051,"nivolumab: anti-PD-1 mAb, positive control [reference compound]"

# Same assay, conditions: X (1.5 μM) vs BMS-8 ([…])
row,improvement of IC50 relative to BMS-8,Molecule
1,about five,"Cc1c(COc2ccc(C[C@H](N)C(=O)O)cc2Br)cccc1-c1ccccc1 [X, (S)-2-amino-3-[3-bromo-4-{(2-methyl-1,1′-biphenyl-3-yl)methoxy}phenyl]propanoic acid]"
